Where “and” joins values, the source holds several entries; their conditions need not be identical. Equal entries are not always repeated. Calls of active or inactive are those of the source.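 The calls were made as follows: active = compound whose mean IC50 is 10 µM or lower in every cell protection panel where tested; inactive = the rest.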
Legend:
HL-1 = assay: protection of cardiomyocytes from stress damage, SAR follow-up, cell-based, panel, H9c2 and HL-1, ATP luminescence, set 2 (AID 651871); details: H9c2/HL-1 cardiomyocytes;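 also: cells exposed to stressor for 2 h before ATP readout; potency for protection of cells against peroxide damage not for cytotoxicity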
H9c2 = assay: as above; details: H9c2/HL-1 cardiomyocytes
[1] = 2-deoxyglucose stress, with 2-deoxyglucose, mean of runs
[2] = H2O2 oxidative stress, with H2O2, mean of runs

| Compound | IC50 (HL-1; [1]) | IC50 (HL-1; [2]) | IC50 (H9c2; [1]) | IC50 (H9c2; [2]) |
| --- | --- | --- | --- | --- |
| COc1ccc2c(c1OC)C(=O)N1c3ccccc3C(=O)N(Cc3cccc(Cl)c3Cl)C21 (centres undefined) | 2.65 µM and 3.05 µM and > 79 µM (inactive) | > 79 µM (inactive) | 4.57 µM and 6.37 µM and > 79 µM (inactive) | 0.215 µM and 0.391 µM and 11.7 µM (inactive) |
| COc1ccc2nc(-c3cc(OC)c(OC)c(OC)c3)cc(C(=O)NCC(=O)Nc3ccc(C(C)=O)cc3)c2c1 | 4.3 µM | 6.53 µM and 3.98 µM | 3.87 µM | 0.634 µM and 0.44 µM |
| COc1cc(-c2cc(C(=O)Nc3cccc(C(=O)NCc4ccccc4)c3)c3ccccc3n2)cc(OC)c1OC |  | 3.97 µM |  | 0.411 µM |
| CCOC(=O)c1cccc(NC(=O)CNC(=O)c2cc(-c3cc(OC)c(OC)c(OC)c3)nc3ccccc23)c1 | 2.9 µM | 3.41 µM | 2.72 µM | 0.28 µM |
